Measured values as given in patent US8630703B2, “Treatment utilizing hydrophobic weak bases chemotherapeutic agents and illumination” (Technion Research & Development Foundation Limited, priority 2011, dated 2014).
pIC50: −log10 of the molar value. Where two headings read alike, the source gives them in different places.

Columns and labels:
[1] = tested on: human umbilical vein endothelial cells (HUVEC); assay: Fluorescence microscopy of endothelial cells; type: cell-based; conditions: 1 μM
Experimental: Human umbilical vein endothelial cells (HUVEC) were isolated by perfusion of umbilical veins (Department of Obstetrics and Gynaecology, VU University Medical Center) with trypsin. Cells were routinely cultured in RPMI-1640 medium (Life Technologies, Breda, The Netherlands) supplemented with 10% heat-inactivated human serum, 10% heat-inactivated FCS, 2 mM L-glutamine (Life Technologies, Netherlands), […] streptomycin and 50 U/ml penicillin (ICN Biomedicals) in a 0.2% gelatin coated 75 cm^2 tissue culture flask at 37° C. in an atmosphere with 5% CO2. HUVEC used for experiments were cultured without addition of extra growth factors and used for experiments between passage 2 and 4.
Freshly-isolated human umbilical vein endothelial cells (HUVEC), RF24 immortalized HUVEC cells, and human dermis derived endothelial cells (HMEC) were obtained and grown in vitro as described in the Materials and Methods section hereinabove. The cells were then seeded at 10^4 cells/well in a 24-well tissue culture plate. Twenty four hours after seeding, the cells were incubated for 1 hour with 10 or 1 μM of either C-1375, C-1379 or sunitinib. After this incubation, the cells in the 24-well plates were evaluated by fluorescence microscopy. […]

[2] = tested on: 2008/MRP1 cells; assay: XTT cytotoxicity assay with and without illumination
Experimental: (§1) Parental cells and their MDR (multi-drug resistant) sub-lines were seeded in 96-well plates (2×10^4 cells/well in 90 μl growth medium/well). […] Following incubation for 2 hours, the drug-containing medium was replaced by drug-free medium. The cells were then placed on an illuminator plate (Model 460, thin line series, S&S X-Ray Products Inc., Brooklyn, N.Y.) for 1 hour, thereby achieving a light dose of 5 J/cm^2 white light. After illumination, plates were further incubated for an additional 24 hours.
(§2) Cell viability was determined using an XTT (2,3-bis-(2-methoxy-4-nitro-5-sulfophenyl)-2H-tetrazolium-5-carboxanilide) Cell Proliferation Kit (Biological Industries). […] Results are presented as mean values of at least three independent experiments.

[3] = tested on: SW1573/2R160 cells; assay: as above
Experimental: Cells were grown in drug-free conditions for one week before any analysis.
as §1, §2

[4] = tested on: 2008 cells; assay: as above
Experimental: as §1, §2

[5] = tested on: human dermis derived endothelial cells (HMEC); assay: Fluorescence microscopy of endothelial cells; type: cell-based; conditions: 1 μM, blue light (420 nm)
Experimental: Endothelial cell lines RF24 and HMEC, were provided by Dr. H. Pannekoek (CLB, Amsterdam, Netherlands) and Dr. D van der Schaft (Maastricht University), respectively.
Freshly-isolated human umbilical vein endothelial cells (HUVEC), RF24 immortalized HUVEC cells, and human dermis derived endothelial cells (HMEC) were obtained and grown in vitro as described in the Materials and Methods section hereinabove. The cells were then seeded at 10^4 cells/well in a 24-well tissue culture plate. Twenty four hours after seeding, the cells were incubated for 1 hour with 10 or 1 μM of either C-1375, C-1379 or sunitinib. After this incubation, the cells in the 24-well plates were evaluated by fluorescence microscopy. For excitation and detection of imidazoacridinones (IAs) or sunitinib, the microscope was equipped with a filter set (Nikon) characterized by excitation wavelengths of 420±20 nm and emission wavelengths of >470 nm.

[6] = Absorption, emission and excitation spectra; type: physicochemical; conditions: aqueous 0.9% NaCl
Experimental: Stock solutions containing sunitinib or the imidazoacridinones (IAs) C-1375 and C-1379 in 100% dimethyl sulfoxide were diluted with aqueous 0.9% NaCl solution under continuous stirring. Absorption spectra were recorded with a two-beam Cary 500 UV-VIS-NIR spectrophotometer (Varian) in 1 cm long Suprasil® quartz cuvettes (Hellma), at an average scan speed of 600 nm/minute, at 20° C. The steady state emission and excitation spectra were recorded with an LS 50B luminescence spectrometer (Perkin-Elmer).

[7] = tested on: A549 cells; assay: XTT cytotoxicity assay with and without illumination
Experimental: as §1, §2

[8] = tested on: A549/K1.5 cells; assay: as above; type: cell-based, Human; conditions: A549/K1.5
Experimental: Human non-small cell lung cancer A549 cells and their ABCG2-overexpressing MDR (multi-drug resistant) A549/K1.5 sub-line; ovarian carcinoma cell line 2008 and its stable MRP1-transfectant 2008/MRP1; and human non-small lung cancer cell line SW1573 and its ABCB1-overexpressing subline SW1573/2R160) were maintained in RPMI-1640 medium supplemented with 10% fetal bovine serum, 2 mM glutamine, 100 μg/ml penicillin and streptomycin (Biological Industries, Beth-Haemek, Israel) in a humid atmosphere containing 5% CO2 at 37° C.
as §1
(§3) Cell viability was determined using an XTT (2,3-bis-(2-methoxy-4-nitro-5-sulfophenyl)-2H-tetrazolium-5-carboxanilide) Cell Proliferation Kit (Biological Industries). The drug concentrations required to inhibit cell growth by 50% (i.e., IC50 values) were determined from the cell survival curves in the absence and in the presence of illumination. Results are presented as mean values of at least three independent experiments.

[9] = tested on: chicken chorioallantoic membrane (CAM) vasculature; assay: Chorioallantoic membrane (CAM) model of photodynamic therapy; type: in vivo; conditions: 100 μg/embryo i.v.; 420 nm, 20 J/cm^2, 1 minute after injection; 24 hours after treatment
Experimental: Fertilized chicken eggs (Animalco AG) were labeled and transferred into a hatching incubator with a relative air humidity of 65% and a temperature of 37° C. The incubator was equipped with an automatic fan (Savimat). On embryonic development day (EDD) 3, a hole of approximately 3 mm in diameter was opened in the eggshell above the air pouch of the egg and covered with Parafilm® wrapping film (Pechiney) to prevent dehydration and possible infections. The eggs were then returned to the incubator in a static position until use. On EDD 11, the hole in the shell was extended to a diameter of approximately 3 cm in order to provide better access to the chorioallantoic membrane (CAM) during experiments.
Eggs were placed under an Eclipse 600 FN epi-fluorescence microscope equipped with a Plan Apo 4/0.2, working distance 20 objective (Nikon). Microscopic observation and illumination of a region of the CAM was performed as described previously [Lim et al., Photochem Photobiol 2010, 86:397-402; Lim et al., J Med Chem 2010, 53:2865-2874; Nowak-Sliwinska et al., Angiogenesis 2010, 13:281-292]. Illumination was provided by a 100 W high pressure Hg-arc lamp. Light doses were adjusted with neutral density filters and measured with a calibrated Field-Master GS power meter (Coherent Inc.). Fluorescence images were acquired with an F-view II 12-bit monochrome Peltier-cooled digital CCD camera driven with analySIS DOCU software (Soft Imaging System GmbH).
For excitation and detection of imidazoacridinones (IAs) or sunitinib, the microscope was equipped with a filter set (Nikon) characterized by excitation wavelengths of 420±20 nm and emission wavelengths of >470 nm,
After the treatment the eggs were numbered, covered and returned to the incubator. Each treatment group included 5 eggs.
Chorioallantoic membranes (CAMs) were intravenously injecting chorioallantoic membranes with 20 μl of a solution of FITC-dextran (20 kDa, 25 mg/ml). Fluorescence angiography was then performed using light from an Hg-arc lamp and light filters (Nikon) which provided excitation wavelengths of 470±20 nm and emission wavelengths of >520 nm for observing the fluorescence. In order to increase the quality of the recorded angiographs, a light absorber, in the form of India ink, was injected (30 μl) into the extra-embryonic cavity. The purpose of this second injection was to decrease the influence of the CAM auto-fluorescence background, which changes rapidly with time due to the embryo's movement. The India ink was filtered shortly before injection, using a sterile cellulose acetate membrane with 0.2 μm pores (Renner GmbH).
Photodynamic therapy (PDT) was performed at embryo development day (EDD) 11, at which stage the CAM is fully developed and contains a vessel network with a regular capillary plexus. The imidazoacridinones were intravenously injected into the main vessel of the CAM through a 33-gauge needle fitted to a 100 μl syringe (Hamilton), at a concentration of 1 mg/ml and a volume of 100 μl, which corresponds to a dose of 100 μg, or approximately 10 mg/kg embryo body weight.
One minute after injection, a region of the CAM which contained vessels of diameters in a range of 5 to 70 μm was illuminated (420±20 nm) at a light dose of 20 J/cm^2 and an irradiance of […]. […]
The illuminated area was 0.02 cm^2, as delimited by an optical diaphragm. The fluorescence of sunitinib was visible in the vasculature of the CAMs prior to PDT.

[10] = tested on: SW1573 cells; assay: XTT cytotoxicity assay with and without illumination
Experimental: as §1, §2

[11] = tested on: MDR SW/2R160 and 2008/MRP1 cells; assay: XTT cytotoxicity, result stated jointly for MDR cells; type: cell-based
Experimental: as §1, §3

## COc1ccc2c(c1)c(=O)c1c(NCCCN(C)C)ccc3nc(C)n2c31 [C-1375]
[1]; approximately 2 minutes of illumination
  photodestruction of lysosomes: most of the lysosomes had disappeared
[1]; illumination 1 minute (420 nm)
  photodestruction of lysosomes: many lysosomes were destroyed
[2]; control vs illumination
  Fold sensitization: 51
[2]; illumination
  C-1375 LD50 Illumination: 101 ± 0.1 nM
  Survival at 1000 nM Illumination: 13 ± 3%
[2]; no illumination
  C-1375 LD50 Control: 5.115 ± 0.889 µM
  Survival at 1000 nM Control: 80 ± 2%
[3]; control vs illumination
  Fold sensitization: 13
[3]; illumination
  C-1375 LD50 Illumination: 330 ± 56 nM
  Survival at 1000 nM Illumination: 24 ± 4%
[3]; no illumination
  C-1375 LD50 Control: 4.384 ± 0.125 µM
  Survival at 1000 nM Control: 74 ± 3%
[4]; control vs illumination
  Fold sensitization: 36
[4]; illumination
  C-1375 LD50 Illumination: 90 ± 9 nM
  Survival at 1000 nM Illumination: 11 ± 4%
[4]; no illumination
  C-1375 LD50 Control: 3.28 ± 0.345 µM
  Survival at 1000 nM Control: 72 ± 0.8%
[5]
  photodestruction of lysosomes: lysosome destruction and accumulation of C-1375 in the nuclei also occurred
[6]
  Peak absorption: 444 nm
  Peak emission: 553 nm
  Peak excitation: 449 nm
[7]; control vs illumination
  Fold sensitization: 14
[7]; no illumination
  Survival at 3000 nM Control: 50 ± 3%
[7]; no illumination, 2 h drug, XTT 24 h later
  LD50 Control: 3.054 ± 0.26 µM
[7]; white light 1 hour (5 J/cm^2)
  LD50 Illumination: 212 ± 29 nM
[7]; white light illumination
  Survival at 3000 nM Illumination: 3 ± 2%
[8]; control vs illumination
  Fold sensitization: 10
[8]; no illumination
  LD50 Control: 5.264 ± 0.877 µM
  Survival at 3000 nM Control: 70 ± 5%
[8]; white light 1 hour (5 J/cm^2)
  LD50 Illumination: 541 ± 56 nM
[8]; white light illumination
  Survival at 3000 nM Illumination: 3 ± 0.6%
[9]
  vascular effect in illuminated area: vaso-occlusion within the illuminated area
[10]; control vs illumination
  Fold sensitization: 24
[10]; illumination
  C-1375 LD50 Illumination: 233 ± 5 nM
  Survival at 1000 nM Illumination: 11 ± 2%
[10]; no illumination
  C-1375 LD50 Control: 5.535 ± 0.596 µM
  Survival at 1000 nM Control: 68 ± 6%
[11]; illumination, read-out: IC50 with illumination
  pIC50: 6.48 to 7.05
[11]; no illumination, read-out: IC50 in the absence of illumination
  pIC50: 5.26 to 5.48
